Tests used:
[1] = tested on: HAP1 MTAP-deleted cell line; test: SDMA in-cell western assay, HAP1 MTAP-deleted; type: cell-based; details: for IC50: Homo sapiens, HAP1, SDMA in-cell western, HAP1 MTAP-deleted; for MTAP intact/deleted ratio: IC50 ratio HAP1 MTAP-intact / HAP1 MTAP-deleted, SDMA in-cell western
In short: (§1)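 Compounds were tested in HAP1 cells differing only in MTAP status (endogenous expression versus null). Cellular SDMA levels were then measured by in-cell western, giving an IC50 in each background.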

PRMT5 [2] = molecular target: T1, PRMT5 (Homo sapiens, UniProt O14744); test: PRMT5 biochemical IC50 assay with SAM as cofactor; details: PRMT5, SAM as cofactor; read-out: SAM IC50
T1 construct: purchased Viva (custom protein)

PRMT5 [3] = molecular target: T1, PRMT5; test: PRMT5 biochemical IC50 assay with MTA as cofactor; details: PRMT5, MTA as cofactor; read-out: MTA IC50
[4] = tested on: HAP1 MTAP-deleted cell line; test: Viability assay, MTAP-deleted cell line; type: cell-based; details: Homo sapiens, read-out: HAP1 MTAP deleted viability
Source text: Table 1 additionally indicates IC50 values in a viability assay for the MTAP-deleted cell line (column 10), indicating the effect of treatment with compound on cell survival.

PRMT5 [5] = molecular target: T1, PRMT5; test: PRMT5 biochemical IC50 assay with no cofactor; details: PRMT5, no cofactor
Source text: Table 1 indicates IC50 values (μM) against PRMT5 for exemplary compounds in the presence of SAM as cofactor, with no cofactor, and with MTA as cofactor, respectively (columns 4-6). […] Ki values can be calculated from the IC50 values as described in the Examples section. As detailed in the Examples section, for the assay performed in the presence of SAM, IC50=Ki×1.5 (Ki=IC50/1.5).

[6] = tested on: HAP1 MTAP-intact cell line; test: SDMA in-cell western assay, HAP1 MTAP-intact; type: cell-based; details: Homo sapiens, HAP1, SDMA in-cell western, HAP1 MTAP-intact; read-out: MTAP HAP1 intact IC50
In short: as §1

[7] = read-out: HAP 1 MTAP deleted IC50
[8] = read-out: No Cofactor/ rel IC50
[9] = read-out: HAP1 MTAP deleted IC50
[10] = HAP1, viability assay, MTAP-deleted cell line
[11] = HAP1, viability IC50, MTAP-deleted cell line

T1 sequence (O14744 whole entry): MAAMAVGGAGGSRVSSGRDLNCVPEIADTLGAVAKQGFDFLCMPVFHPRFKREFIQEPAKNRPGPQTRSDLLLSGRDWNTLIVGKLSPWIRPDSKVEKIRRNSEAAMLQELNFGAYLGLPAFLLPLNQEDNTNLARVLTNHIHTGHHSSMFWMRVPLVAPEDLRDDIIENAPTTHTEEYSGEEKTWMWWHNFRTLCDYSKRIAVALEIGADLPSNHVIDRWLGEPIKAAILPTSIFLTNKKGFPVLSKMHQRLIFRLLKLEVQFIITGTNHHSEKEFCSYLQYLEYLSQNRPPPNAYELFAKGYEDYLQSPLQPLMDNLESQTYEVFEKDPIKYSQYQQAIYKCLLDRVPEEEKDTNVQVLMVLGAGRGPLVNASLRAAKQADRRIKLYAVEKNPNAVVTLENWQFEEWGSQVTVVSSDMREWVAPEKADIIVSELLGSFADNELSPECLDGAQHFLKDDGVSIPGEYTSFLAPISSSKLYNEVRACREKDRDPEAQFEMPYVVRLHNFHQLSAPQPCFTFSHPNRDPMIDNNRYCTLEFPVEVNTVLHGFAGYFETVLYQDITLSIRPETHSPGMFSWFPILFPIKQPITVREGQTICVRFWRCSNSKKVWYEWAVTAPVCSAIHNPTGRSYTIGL
T1 sequence (Q9BQA1 whole entry partner): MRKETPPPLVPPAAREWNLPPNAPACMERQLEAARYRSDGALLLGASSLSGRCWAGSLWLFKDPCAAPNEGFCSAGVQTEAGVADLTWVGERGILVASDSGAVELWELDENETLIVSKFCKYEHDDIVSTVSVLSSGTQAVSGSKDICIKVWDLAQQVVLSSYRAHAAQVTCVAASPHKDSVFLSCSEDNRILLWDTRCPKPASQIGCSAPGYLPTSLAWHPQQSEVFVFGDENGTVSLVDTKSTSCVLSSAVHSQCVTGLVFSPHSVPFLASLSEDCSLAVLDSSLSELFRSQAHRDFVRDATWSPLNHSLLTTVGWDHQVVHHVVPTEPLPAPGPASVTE

IC50 [1, 7] [nM] | IC50 (PRMT5 [2]) [nM] | IC50 (PRMT5 [3]) [nM] | IC50 (PRMT5 [5]; [8]) [nM] | IC50 [6] [nM] | IC50 [1, 9] [nM] | IC50 (PRMT5 [5]; read-out: No Cofactor/rel IC50) [nM] | Compound | MTAP intact/deleted ratio [1] | IC50 ([4]; HAP1, viability, HAP1 MTAP-deleted cell line) [nM] | IC50 [4, 10] [nM] | IC50 [4, 11] [nM] | IC50 ([4]; HAP1, viability assay, HAP1 MTAP-deleted) [nM]
 | > 500 | > 500 |  | > 1000 | > 1000 | > 500 | C[C@H]1CC[C@H](c2csc3ccccc23)N(C(=O)C(=O)Nc2cncc(C(N)=O)c2)C1 (single isomer, unassigned) [Compound 466] | C (an IC50 ratio of less than 3 fold) |  | > 10000 |  | 
< 100 | 50 to 500 | < 50 |  | 100 to 1000 |  | 50 to 500 | Cc1cc(NC(=O)C(=O)N2C[C@H](C)CC[C@H]2c2ccc3[nH]c(=O)ccc3c2)cnc1N (racemic) [Compound 671, rac-N-(6-Amino-5-methyl-3-pyridyl)-2-[5-methyl-2-(2-oxo-1H-quinolin-6-yl)-1-piperidyl]-2-oxo-acetamide] | B (an IC50 ratio greater than or equal to 3 fold but lower than 10 fold) |  |  | < 1000 | 
> 1000 | > 500 | > 500 |  | > 1000 |  | > 500 | Cc1cc(NC(=O)C(=O)N2CCCC[C@@H]2c2ccc3[nH]ncc3c2)cnc1N (single isomer, unassigned) [Compound 535] | B (an IC50 ratio greater than or equal to 3 fold but lower than 10 fold) |  |  | > 10000 | 

Further lines, the molecule ahead of its results:

Compound | IC50 [1, 7] [nM] | IC50 (PRMT5 [2]) [nM] | IC50 (PRMT5 [3]) [nM] | IC50 (PRMT5 [5]; [8]) [nM] | IC50 [6] [nM] | IC50 [1, 9] [nM] | IC50 (PRMT5 [5]; read-out: No Cofactor/rel IC50) [nM] | MTAP intact/deleted ratio [1] | IC50 ([4]; HAP1, viability, HAP1 MTAP-deleted cell line) [nM] | IC50 [4, 10] [nM] | IC50 [4, 11] [nM] | IC50 ([4]; HAP1, viability assay, HAP1 MTAP-deleted) [nM]
C[C@H]1CC[C@H](c2ccc3sc(CCN4CCCC4)nc3c2)N(C(=O)C(=O)Nc2cnc(N)c(C3COC3)c2)C1 [Compound 1379, N-(6-amino-5-(oxetan-3-yl)pyridin-3-yl)-2-((2R,5S)-5-methyl-2-(2-(2-(pyrrolidin-1-yl)ethyl)benzo[d]thiazol-5-yl)piperidin-1-yl)-2-oxoacetamide] | < 100 | 50 to 500 | < 50 | 50 to 500 | < 100 |  |  | A (an IC50 ratio greater than or equal to 10 fold) | < 1000 |  |  | 
Cc1csc(C2CCCCN2C(=O)C(=O)Nc2cnc(N)c(C)c2)n1 (stereo not drawn) [Compound 49, N-(6-Amino-5-methyl-3-pyridyl)-2-[2-(4-methylthiazol-2-yl)-1-piperidyl]-2-oxo-acetamide] | 100 to 1000 | 50 to 500 | < 50 | 50 to 500 | > 1000 |  |  | A (an IC50 ratio greater than or equal to 10 fold) |  | > 10000 |  | 
Cc1cc([C@H]2CC[C@H](C)CN2C(=O)C(=O)Nc2cncc(C(N)=O)c2)ccc1F (single isomer, unassigned) [Compound 293] |  | < 50 | < 50 |  | > 1000 | < 100 | 50 to 500 | A (an IC50 ratio greater than or equal to 10 fold) |  | 1000 to 10000 |  | 
CC1CCC(C2CCCC2)CN1C(=O)C(=O)Nc1cncc(C(N)=O)c1 (racemic) [Compound 143, 5-[2-(5-Cyclopentyl-2-methylpiperidin-1-yl)-2-oxoacetamido]pyridine-3-carboxamide] | > 1000 | > 500 | 50 to 500 | > 500 | > 1000 |  |  | C (an IC50 ratio of less than 3 fold) |  | > 10000 |  | 
COc1ncc(NC(=O)C(=O)N2C[C@@H](C)CC[C@@H]2c2ccc(C)nc2)cc1C(N)=O (single isomer, unassigned) [Compound 770] |  | > 500 | > 500 |  | > 1000 | > 1000 | > 500 | C (an IC50 ratio of less than 3 fold) |  |  |  | > 10000
Cc1cc(NC(=O)C(=O)N2C[C@@H](C)CC[C@@H]2c2ccc3c(=O)[nH]ccc3c2)cnc1N (single isomer, unassigned) [Compound 961] | < 100 | > 500 | < 50 |  | > 1000 |  | 50 to 500 | A (an IC50 ratio greater than or equal to 10 fold) |  | 1000 to 10000 |  | 

Reference: patent publication US11999727B2 (Tango Therapeutics, Inc., priority 2020, dated 2024)
